Activity calls are given as the source filed them.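 How the source made its calls: active means compounds giving half or more protection of infected cells from virus-caused growth loss, again on retest; inactive means the rest.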 Where a SMILES comes first, the peptide text is derived from it. The star is where a group is joined. Cbz = O=C(OCc1ccccc1)*; Boc = CC(C)(C)OC(=O)*; Bn = c1ccc(C*)cc1

The experiment deals with CEM cells HIV-1 protection, formazan growth assay. The experiment in a line: NCI AIDS Antiviral Assay. Particulars: for IC50: measured here: growth of uninfected CEM cells. The method in brief:
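Category rules: moderately active means at least 50% protection on retest, and confirmed active means 100% protection reproducibly. The underlying data came from a formazan growth assay in HIV-1-infected CEM cells.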

In the case of `COc1cc(C2C3=C(N=C4SC(C(C)=O)=C(C)N42)c2ccccc2CC3)cc(OC)c1OC` (stereo unspecified), the EC50 was above 200 µM and the IC50 worked out at 40.7 µM.
Taken in the same sequence, the figures for `C=CCN1/C(=C(\C#N)c2nc3ccccc3[nH]2)Sc2c1nc[nH]c2=O` were above 10.7 µM and above 10.7 µM.
The like results for `C1=C(C2CCCC3[C@@H]4C[C@@H](CN23)C2CCCCN2C4)CCC2[C@H]3C[C@H](CN12)C1CCCCN1C3` (stereo partly specified) were, in that order, above 21.4 µM and above 21.4 µM.
The like results for `O=C1C[C@@H]2[C@@H](CCC23CC3)N1` were, in that order, above 1660 µM and above 1660 µM.
Consider `CC1C2Cc3ccc(O)cc3C1(C)CCN2C` (stereo unspecified), for which the EC50 is above 129 µM and the IC50 was above 129 µM.
On to `Cc1c(Cl)cccc1NC(=O)C(=O)C1C(=O)NC(=O)NC1=O`, for which the EC50 was above 398 µM and the IC50 is above 398 µM.
Regarding `COc1ccc(/C=C2\N=C(C)OC2=O)cc1`, the EC50 was above 437 µM and the IC50 was above 437 µM.
For `N#CC(C(=N/O)/C(=N/O)C(C#N)c1ccc(Cl)cc1)c1ccc(Cl)cc1` (stereo unspecified), the EC50 was above 468 µM and the IC50 amounted to 178 µM.
The like results for `O=C(CN1CCN(C(=O)OCc2ccccc2)CCN(CC(=O)N2CCCCC2)CCN(C(=O)OCc2ccccc2)CC1)N1CCCCC1` were, in that order, above 200 µM and 10.2 µM.
Consider `Cc1ccc2nc(NC(=O)C(=O)C3C(=O)NC(=S)NC3=O)sc2c1`, for which the EC50 is above 692 µM and the IC50 stood at 417 µM.
Taken in the same sequence, the figures for `Nc1ccccc1SC(CC(=O)c1ccccc1)c1ccc2c(c1)OCO2` (stereo unspecified) were above 200 µM and 10.7 µM.
Consider `CC(=O)Oc1ccc2c(c1)c1c(=O)oc(N(C)C)nc1n2Cc1ccccc1`, for which the EC50 is above 200 µM and the IC50 was 120 µM.
In the case of `CC1(C)OCC(C2OC(OC(=O)c3ccc([N+](=O)[O-])cc3)C3OC(C)(C)OC23)O1` (stereo unspecified), the result was inactive.
Take `CC(C)OP(=O)(OC(C)C)C(C(C)C)N(C)/C(F)=N/C(F)(F)F` (stereo unspecified): the EC50 was above 200 µM and the IC50 was above 200 µM.
Consider `NC(=S)NN=C1Cc2ccccc2C1`, for which the EC50 is above 200 µM and the IC50 stood at 145 µM.
The like results for `CN1CCN(c2c(Cl)cc(Cl)c3[nH]c4ccccc4c(=O)c23)CC1` were, in that order, above 2 µM and 0.977 µM.
The like results for `CC(C)(C)OC(=O)NC(Cc1ccc(OCc2ccccc2)cc1)C(=O)NC(CCCCNC(=O)OCc1ccccc1)C(=O)O` (stereo unspecified) (Boc-Tyr(Bn)-Lys(Cbz)-OH; configuration not given here) were, in that order, above 200 µM and 75.9 µM.
The like results for `S=C1NC=CC(S)N1` (stereo unspecified) were, in that order, above 200 µM and above 200 µM.
In the case of `COc1ccc(NC(=O)/C(CC2=Nc3ccc([N+](=O)[O-])cc3NC2O)=N\NC(=O)C[N+](C)(C)C)c(OC)c1` (stereo unspecified), the EC50 was above 45.7 µM and the IC50 was above 45.7 µM.
Take `O=C(O)C1CCC(C(=O)O)SS1` (stereo unspecified): the EC50 is above 1200 µM and the IC50 is above 1200 µM.
For the compound `Cc1c(NC(=S)Nc2ccc([N+](=O)[O-])cc2)c(=O)n(-c2ccccc2)n1C`, the EC50 is above 200 µM and the IC50 is above 200 µM.
In the case of `COc1cc2c(cc1OC)C(O)[C@H](Br)C(C)(C)O2` (stereo partly specified), the EC50 was above 158 µM and the IC50 is 89.1 µM.
Taken in the same sequence, the figures for `Cc1ccccc1N(CCC#N)C1=NN(C(=O)CC(=O)Nc2ccccc2)C(c2ccccc2)C1` (stereo unspecified) were above 77.6 µM and above 77.6 µM.
The like results for `COc1ccc(CN2CC(=O)N3Cc4ccccc4CN3C(=O)C2)cc1` were, in that order, above 200 µM and 166 µM.
`COc1ccc(C(C2=C(O)COC2=O)c2cc3c(cc2O)OCO3)cc1OC` (stereo unspecified): the EC50 is above 200 µM and the IC50 was found to be 132 µM.
Taken in the same sequence, the figures for `CCCCCCCCCCCCCC(=O)OCC1OC(n2cc(F)c(=O)[nH]c2=O)C(N)C(OC(=O)CCCCCCCCCCCCC)C1O` (stereo unspecified) were above 7.41 µM and above 7.41 µM.
Taken in the same sequence, the figures for `COc1ccc(S(=O)(=O)N/N=C/c2cc(I)cc([N+](=O)[O-])c2O)cc1OC` were above 355 µM and 60.3 µM.
Taken in the same sequence, the figures for `CO/C(N)=C(\C#N)N=Cc1ccsc1` were above 200 µM and 126 µM.
In the case of `CCOC(=O)C(OP(=O)(OCC)OCC)C(F)(F)F` (stereo unspecified), the EC50 is above 200 µM and the IC50 was above 200 µM.
Regarding `[N-]=[N+]=Nc1c(Cl)c(Cl)nc2ccccc12`, the EC50 was above 200 µM and the IC50 came out at 61.7 µM.
The like results for `COc1cc(/C=C/C(=O)/C=C/c2cc(OC)c(OC)c(OC)c2)cc(OC)c1OC` were, in that order, above 200 µM and 0.0977 µM.
The like results for `CCC(C)SSc1ccccc1C(=O)Nc1ccc(Cl)cc1` (stereo unspecified) were, in that order, above 200 µM and 0.776 µM.
The like results for `CC1=C(C)C(=O)C(C2=CC(=O)C=CC2=O)=C(C2=CC(=O)C=CC2=O)C1=O` were, in that order, above 200 µM and 9.77 µM.
On to `N#CC(C#N)=C1C(C#N)=C(N)NC12OCCO2`, for which the EC50 was above 200 µM and the IC50 was above 200 µM.
Consider `Cn1c2ccccc2n2c3nc4ccccc4nc3c(C#N)c12`, for which the outcome was inactive.
On to `COCCN1CC(=O)N2Cc3ccccc3CN2C(=O)C1`, for which the result was inactive and the IC50 is above 200 µM.
`O=C(O)[C@@H]1CCC(=O)N1C(c1ccc2c(c1)OCO2)c1ccc2c(c1)OCO2`: the EC50 was above 200 µM and the IC50 was above 200 µM.
Turning to `C/C(CC(=O)Nc1ccccc1)=N\NC(N)=S`, the EC50 is above 1000 µM and the IC50 is 170 µM.
The like results for `COC(=O)c1c(O)c2c(c3c1OC(C)(C)CC3)OC(C)(C)CC2` were, in that order, above 200 µM and 93.3 µM.
The like results for `CNC(=O)NCNC(=O)NC` were, in that order, above 562 µM and above 562 µM.
The like results for `NC(C/C=C/P(=O)(O)O)C(=O)O` (stereo unspecified) were, in that order, above 200 µM and 155 µM.
In the case of `C[C@H]1CN[C@@H]2[C@@H](C)[C@H]3[C@@H](C[C@H]4[C@@H]5CC[C@H]6C[C@@H](N)CC[C@]6(C)[C@H]5CC[C@]34C)O[C@@]2(O)C1`, the EC50 was above 38 µM and the IC50 was determined as 1.74 µM.
The like results for `C1CCC2(CC1)C[N+]1(CCCC1)C1(CCC1)O2` were, in that order, above 200 µM and above 200 µM.
Turning to `C=CCC1(O)CC(n2cc(C)c(=O)[nH]c2=O)OC1CO[Si](C)(C)C(C)(C)C` (stereo unspecified), the EC50 was above 200 µM and the half-inhibitory concentration (IC50) is 91.2 µM.
Taken in the same sequence, the figures for `C=CCSC[C@H](NC(=O)COc1ccccc1)C(=O)NC(C(=O)OCc1ccc([N+](=O)[O-])cc1)=C(C)C` were above 25.7 µM and above 25.7 µM.
Taken in the same sequence, the figures for `Nc1nc2c(c(=O)[nH]1)N=C(COP(=O)(O)OP(=O)(O)O)CN2` were above 200 µM and 145 µM.
Taken in the same sequence, the figures for `O=S(c1ccccc1)[C@H]1CC2C3CC4C2C4C31` (stereo partly specified) were above 107 µM and above 107 µM.
`CC1C(c2ccc3c(c2)OCO3)CC(Cl)CC12C=C1OCOC1=CC2=O` (stereo unspecified): the EC50 is above 69.2 µM and the IC50 was found to be 47.9 µM.
The like results for `COc1ccc(-c2csc(=Nc3ccccc3)n2CCCN(C)C)cc1` were, in that order, above 200 µM and 16.2 µM.
Consider `Nc1c(Br)cc(/C=C2\C=Cc3ccccc32)cc1Br`, for which the EC50 is above 10 µM and the IC50 was above 10 µM.
Turning to `COc1oc(C2C/C(=C/C(C)=C/C(C)=C/C(C)=C/c3ccc([N+](=O)[O-])cc3)CO2)c(C)c(=O)c1C` (stereo unspecified), the EC50 was above 38.9 µM and the IC50 is 10 µM.
As to `Cc1ccnc(NS(=O)(=O)c2ccc(N=Nc3c(N)n(C)c(=O)n(C)c3=O)cc2)n1`, the result was inactive.
For `COc1ccc(N2C(=O)C3c4[nH]c5ccccc5c4C4CCCCCCCC4C3C2=O)cc1` (stereo unspecified), the EC50 was above 200 µM and the IC50 stood at 81.3 µM.
Regarding `O=C1c2cc(Cl)ccc2NC(=NCCCl)C2CSCN12` (stereo unspecified), the EC50 is above 200 µM and the IC50 is above 200 µM.
Turning to `O=c1[nH]n(Cc2ccccn2)c2ccc([N+](=O)[O-])cc12`, the EC50 was above 200 µM and the IC50 was above 200 µM.
Turning to `N#CCC1(c2ccc(Cl)cc2)NC(=O)c2ccccc21` (stereo unspecified), the EC50 is above 200 µM and the IC50 amounted to 117 µM.
For the compound `O=S1(=O)CCc2ccccc2C(Br)C1` (stereo unspecified), the EC50 is above 200 µM and the IC50 is above 200 µM.
As for `Cc1cc(O)c(/C=N/C(=S)Nc2ccc(S(N)(=O)=O)cc2)c(=O)o1`, the EC50 is above 200 µM and the IC50 is above 200 µM.
As to `O=C(CCN1CCC(CCO)CC1)Nc1ccc2c(c1)C(=O)c1ccc(NC(=O)CCN3CCC(CCO)CC3)cc1C2=O`, the EC50 is above 200 µM and the IC50 worked out at 43.7 µM.
`CCCCCC(O)[C@H]1C(=O)C[C@@H](O[Si](C)(C)C(C)(C)C)[C@@H]1/C=C/CCOCc1ccccc1` (stereo partly specified): the outcome was inactive.
In the case of `N#C/C(=C\c1cccc(F)c1)C(=O)c1ccccc1`, the EC50 is above 39.8 µM and the IC50 was above 39.8 µM.
For `Cn1nc(Br)c(=O)n(C(c2ccccc2)c2ccccc2)c1=O`, the EC50 was above 69.2 µM and the IC50 worked out at 22.9 µM.
The like results for `CCOC(=O)/C=C(/OCC)[C@@H]1C(C(=O)c2ccc(Cl)cc2)[C@H]1/C(=C\C(=O)OCC)OCC` (stereo partly specified) were, in that order, above 200 µM and 17.4 µM.
As to `O=C1C(=Cc2ccc([N+](=O)[O-])o2)C(=O)N(CCc2ccccc2)S(=O)(=O)N1CCc1ccccc1`, the EC50 was above 5.25 µM and the IC50 is above 5.25 µM.
As to `COc1ccc(-c2nc(-c3cnccn3)n(C/C=C/c3ccccc3)n2)cc1`, the EC50 is 64.6 µM and the IC50 is above 200 µM.
Taken in the same sequence, the figures for `[N-]=[N+]=C1C(=O)NC(=O)N2C3CC(O)C(COC12)O3` (stereo unspecified) were above 200 µM and above 200 µM.
Consider `COC1=C(C)C(=O)c2nc(Cl)cc(C)c2C1=O`, for which the result was inactive.
As for `Cc1nnc2sc3c(Cl)c4nn5c(C)nnc5sc4c(Cl)c3nn12`, the EC50 was above 200 µM and the IC50 came to 2.95 µM.
The like results for `NC(=O)ON=C1CCN(Cc2ccccc2)CC1` were, in that order, above 200 µM and above 200 µM.
`COC1(OC)CCC2(C)OC(c3ccccc3)C1O2` (stereo unspecified): the result was inactive.
For `CC(C)(C)SSCCN`, the EC50 is above 200 µM and the IC50 is above 200 µM.

A word on the EC50: it is the concentration at which the effect is half-maximal. The IC50 is the concentration that gives 50% inhibition.

For the origin of these results see PubChem BioAssay AID179 (DTP/NCI, 2004).
